pKi: −log10 of the molar value. “And” between values parts separate entries of the source, which are not always exact repeats. Identical values can stand only once.
Columns and labels:
[1] = target: Protein kinase C alpha type (Homo sapiens, UniProt P17252)
[2] = target: Protein kinase C delta type (Homo sapiens, UniProt Q05655)
Protein kinase C delta type, sequence (Q05655 whole entry): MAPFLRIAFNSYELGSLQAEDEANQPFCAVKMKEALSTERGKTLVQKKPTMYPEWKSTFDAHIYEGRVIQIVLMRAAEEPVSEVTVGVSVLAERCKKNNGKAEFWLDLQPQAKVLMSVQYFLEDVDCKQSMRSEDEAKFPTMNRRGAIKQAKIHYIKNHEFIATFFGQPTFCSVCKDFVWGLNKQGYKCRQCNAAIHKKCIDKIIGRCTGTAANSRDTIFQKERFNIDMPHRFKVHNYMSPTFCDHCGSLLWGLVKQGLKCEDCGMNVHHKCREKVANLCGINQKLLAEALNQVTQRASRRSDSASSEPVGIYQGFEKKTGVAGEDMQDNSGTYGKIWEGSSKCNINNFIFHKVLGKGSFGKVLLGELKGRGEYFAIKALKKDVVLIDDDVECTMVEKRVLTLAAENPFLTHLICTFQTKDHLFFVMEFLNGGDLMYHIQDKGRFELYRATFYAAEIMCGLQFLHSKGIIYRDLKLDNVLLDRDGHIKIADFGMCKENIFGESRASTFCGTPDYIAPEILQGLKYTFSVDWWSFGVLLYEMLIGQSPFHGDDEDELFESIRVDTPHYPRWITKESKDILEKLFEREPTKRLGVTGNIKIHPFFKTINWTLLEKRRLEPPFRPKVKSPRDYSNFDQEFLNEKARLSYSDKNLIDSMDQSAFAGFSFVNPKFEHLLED

C=C(C)C12OC3(c4ccccc4)OC1C1C4OC4(CO)C(O)C4(O)C(=O)C(C)=CC4C1(O3)C(C)C2OC(=O)C=Cc1ccccc1 (configuration not stated) [NSC_6437389]
pKi [1]: 9.54 and 9.66 | pKi [2]: 8.88 and 7.97

CCC(C)(C/C=C1/CC(CO)(COC(=O)CC(C)(CC)C(C)C)OC1=O)C(C)C (stereo not drawn) [B8-DL-B8 (low PS)]
pKi [1]: 8.54 and 8.45 | pKi [2]: 7.94 and 8.00

CC1=CC2C(O)(CC(CO)=CC3C4C(C)(C)C4(OC(=O)Cc4ccccc4)CC(C)C32O)C1=O (configuration not stated) [NSC_105100]
pKi [1]: 9.85 | pKi [2]: 9.25

CCCCCCCCc1ccc2c3c(c[nH]c13)CC(CO)NC(=O)C(C(C)C)N2C (configuration not stated) [CAS_159320]
pKi [1]: 9.28 | pKi [2]: 9.11

CC(C)C1C(=O)NC(CO)Cc2c[nH]c3cccc(c23)N1C (stereo not drawn) [(-)-Indolactam V (low PS)]
pKi [1]: 7.90 | pKi [2]: 8.09 and 7.37

C=C(C)C12OC3(c4ccccc4)OC1C1C4OC4(CO)C(O)C4(O)C(=O)C(C)=CC4C1(O3)C(C)C2OC(=O)C=CC=Cc1ccccc1 (configuration not stated) [NSC_4179]
pKi [1]: 9.57 | pKi [2]: 9.26

From BindingDB's records for doi:10.1124/mol.64.6.1342 (University of Pittsburgh, 2003)
